Measurements: BindingDB's records for doi:10.1016/j.ejmech.2021.113695 (Griffith University, 2021)
pEC50: −log10 of the molar value.

Experiment: Inhibition of NS2B-NS3 intramolecular cleavage in Dengue virus 2 infected in LLC-MK2 cells assessed as inhibition of viral replication measured afer 48 hrs by ELISA

SMILES: O=C1c2c(O)ccc([N+](=O)[O-])c2C(=O)c2c([N+](=O)[O-])ccc(O)c21
- pEC50: 5.38
